Experiments:
MTHFD1-(DC) = target: T1, MTHFD1-(DC) (Homo sapiens, UniProt P11586); assay: biochemical activity assay
T1 construct: dehydrogenase/cyclohydrolase (DC) domain

MTHFD2L = MTHFD2L (Homo sapiens, UniProt Q9H903); assay: biochemical activity assay
Sequence of MTHFD2L (Q9H903 whole entry): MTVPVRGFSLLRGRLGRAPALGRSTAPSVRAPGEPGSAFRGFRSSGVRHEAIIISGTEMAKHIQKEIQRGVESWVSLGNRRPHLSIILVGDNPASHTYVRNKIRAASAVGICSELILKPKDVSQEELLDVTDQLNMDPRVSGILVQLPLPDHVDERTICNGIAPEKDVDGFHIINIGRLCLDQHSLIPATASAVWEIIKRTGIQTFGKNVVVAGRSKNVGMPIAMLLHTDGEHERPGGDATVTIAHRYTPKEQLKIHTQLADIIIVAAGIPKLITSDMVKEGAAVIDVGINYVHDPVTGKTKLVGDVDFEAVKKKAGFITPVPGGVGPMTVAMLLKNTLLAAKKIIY

T1 sequence (P11586 2-306 limits assumed): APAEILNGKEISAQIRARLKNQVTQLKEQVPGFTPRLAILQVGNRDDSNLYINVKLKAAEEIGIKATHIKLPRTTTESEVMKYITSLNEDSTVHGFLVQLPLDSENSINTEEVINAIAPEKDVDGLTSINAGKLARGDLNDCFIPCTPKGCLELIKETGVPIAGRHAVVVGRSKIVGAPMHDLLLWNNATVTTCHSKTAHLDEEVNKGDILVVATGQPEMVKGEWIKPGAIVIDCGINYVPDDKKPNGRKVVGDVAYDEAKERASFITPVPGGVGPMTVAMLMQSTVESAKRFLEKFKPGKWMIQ

IC50 (MTHFD1-(DC)) [nM] | Structure (SMILES) | IC50 (MTHFD2L) [nM]
535 | Nc1nc2c(c(=O)[nH]1)N1C(=O)N(c3ccc(C(=O)N[C@@H](CCC(=O)O)C(=O)O)cc3)CC1CN2 (some centres unmarked) [LY345899] | 
 | Nc1nc(N)c(NC(=O)Nc2ccc(C(=O)N[C@@H](CCC(=O)O)C(=O)O)cc2)c(=O)[nH]1 [TH7299] | 126

— paper PMC8885417, “Pharmacological targeting of MTHFD2 suppresses acute myeloid leukemia by inducing thymidine depletion and replication stress” (Nature Cancer, 2022)
